Columns and labels:
cellular NADase activity = assay: Cellular NADase activity; type: cell-based
Text: FIG. 2A depicts inhibition in cellular NADase activity by CD38 inhibitors Apigenin and Quercetin. In certain embodiments, the invention relates to small molecules capable of inhibiting CD38 activity at nanomolar or micromolar concentrations (FIG. 1 and FIG. 3). Preliminary cellular assays on some of these compounds have shown that they are able to inhibit cellular NADase activity resulting in increased cellular NAD levels (FIG. 2a and FIG. 2b).

[1] = test system: cultured murine oogonial stem cells; assay: Spontaneous oocyte formation assay; type: cell-based; settings: 200 μM and 400 μM NMN
Method: FIG. 9 depicts the increase in spontaneuous oocyte formation in cultured murine oogonial stem cells by nicotinamide mononucleotide. For assessment of spontaneous oocyte formation, each well of a 24-well plate was seeded with 25.000 OSCs, and the number of oocytes formed and released into the medium per well was assessed the second day after seeding as well as the designated time points after NMN treatment. Left bar=vehicle; middle bar=200 μM nicotinamide mononucleotide (NMN); right bar=400 μM NMN.
For assessment of spontaneous oocyte formation, each well of a 24-well plate was seeded with 25.000 OSCs, and the number of oocytes formed and released into the medium per well was assessed the second day after seeding as well as the designated time points after NMN treatment.

[2] = NAD+ levels in vivo in mice
Method: Cardiac [NAD^+] declines with age and is reversed by NMN treatment (n=3; 200 mg/kg/d intraperitoneally for 1 week).
(§1) FIG. 11A depicts the restorative effects of an NAD^+ precursor (NMN) on mitochondrial function in vivo.

[3] = Mitochondrial function in skeletal muscle in vivo; settings: 24-month old mice, 1 week of treatment, I.P.
Text: as §1

murine OSCs = assay: Mitochondrial DNA copy number in OSCs; type: cell-based
Method: (§2) Oogonial stem cells were isolated from dissociated ovaries using a FACS based sorting protocol to purify OSCs free of contaminating oocytes (White et al., in press). Cells were maintained in culture medium consisted of minimum essential medium α (MEMα), 10% FBS, 1 mM sodium pyruvate, 1 mM non-essential amino acids, 2 mM 1-glutamine, 0.1 mM β-mercaptoethanol (Sigma), 10 ng/ml-1 LIF (Millipore), 1× N-2 MAX Media Supplement (R&D) 10 ng/ml EGF (Epidermal growth factor, Recombinant human; Gibco), 40 ng/ml human GDNF (glial cell line-derived neurotrophic factor; R&D systems), 1 ng/ml human bFGF (basic fibroblast growth factor; Gibco)
(§3) For all experiments 25,000 cells were plated in each well of a 24 well plate. Cells were allowed to attach for 24 h and then were treated with NMN (β-Nicotinamide mononucleotide; Sigma). Unless otherwise stated, NMN was added at for 12 and again for 6 hours before analysis (12+6 h).
Total cellular DNA was isolated from cells at the indicated time points using DNeasy Blood & Tissue Kit (Qiagen) according to the manufacturer's instructions. Mt DNA copy number was quantified using LightCycler 480 SYBR Green I Master (Roche Applied Science) using the following primers on a Roche 480 PCR machine.

[4] = test system: murine oogonial stem cells (OSCs); assay: NAD+/NADH levels in oogonial stem cells; type: cell-based
Method: as §2, §3
NAD+/NADH levels were measured according to the manufacturer's instructions using the NAD/NADH Quantitation Kit (Biovision)

C2C 2 cells = assay: Mitochondrial function in C2C 2 cells; type: cell-based; settings: SIRT1-dependent (sh Ctl vs sh SIRT1)

| Structure (SMILES) | cellular NADase activity (cellular NADase activity) | spontaneous oocyte formation [1] | age-related decline of cardiac [NAD+] ([2]; 200 mg/kg/d intraperitoneally for 1 week) | rise of NAD+ levels in brain, heart and skeletal muscle ([2]; intraperitoneal injection) | NAD+ levels in vivo ([2]; young and old mice) | decline in mitochondrial function in skeletal muscle [3] | mitochondrial DNA content (murine OSCs) | cellular NAD+ [4] | cellular NAD+/NADH [4] | cellular NADH [4] | mitochondrial function (C2C 2 cells) |
| --- | --- | --- | --- | --- | --- | --- | --- | --- | --- | --- | --- |
| O=c1cc(-c2ccc(O)cc2)oc2cc(O)cc(O)c12 [Apigenin, 5,7,4′-Trihydroxyflavone] | inhibition | – | – | – | – | – | – | – | – | – | – |
| O=c1c(O)c(-c2ccc(O)c(O)c2)oc2cc(O)cc(O)c12 [Quercetin, 3,5,7,3′,4′-Pentahydroxyflavone] | inhibition | – | – | – | – | – | – | – | – | – | – |
| NC(=O)c1ccc[n+]([C@@H]2O[C@H](COP(=O)([O-])O)[C@@H](O)[C@H]2O)c1 [NMN, β-Nicotinamide mononucleotide] | – | increase | reversed | 30-100% | raises NAD^+ levels | completely reversed | increase | increase | increase | increase | increases mitochondrial function |
